Measured values published in US20060160070A1, “Association-based epitome design” (Microsoft Corporation, priority 2004, published 2006).

Assays:
[1] = biological target: T1, HLA A*0301 (Homo sapiens, UniProt P04439); assay: ITOPIA off-rate assay; assay type: binding; settings: 37° C., one-phase exponential decay
T1 construct: purchased
Description: (§1) Peptide binding, off-rate and affinity were measured according to the protocols described in the ITOPIA Epitope Discovery System Customer Guide. To conduct the experiments, ninety-six (96) micro-titer plates coated with MHC molecules representing the HLA alleles listed in Table 9 were used to identify candidate peptides. Determinations were performed in duplicate using an ELISA plate reader. The peptide binding assay used measures the ability of individual peptides to bind to the HLA molecules under standardized optimal binding conditions. The assay was performed for all the test peptides across the selected HLA alleles. The test peptides identified as “binders” were characterized further in terms of affinity and dissociation experiments. The off-rate assay used evaluates the dissociation of previously bound peptide at defined time points (expressed as the t1/2 value). The affinity assay used measures the relative binding affinities for the MHC molecules determined by incubating candidate peptides identified in the initial peptide binding assay at increasing concentrations (expressed as quantity of peptide needed to achieve 50% binding or ED50 value).
(§2) The peptides initially identified as binders were evaluated for stability based on their ability to remain bound to MHC molecules at 37° C. at time points 0, 0.5, 1, 1.5, 2, 4, 6 and 8 hours. […] The values obtained for each time point (in duplicate) are expressed (Table 11) as a percentage of the positive control. To calculate the t1/2 and goodness-of-fit, as measured by r^2, for each peptide, a one-phase exponential decay curve, with a plateau given equal to 0, was generated using […] PRISM software.

[2] = biological target: T2, HLA A*1101 (Homo sapiens, UniProt P04439, A114D/D185E/E176A/F33Y/L180Q/S129P/T187R); assay: ITOPIA off-rate assay; assay type: binding; settings: 37° C., one-phase exponential decay
T2 construct: purchased
Description: as §1, §2

[3] = biological target: T3, HLA A*0201 (Homo sapiens, UniProt P04439, D140Y/D185E/D98H/E176V/E277Q/G131W/G231S/I119V/I121R/I166T/I218V/L300P/L318F/N151K/N90K/P208A/P217A/Q86G/Q94H/R138H/R169H/T345S); assay: ITOPIA off-rate assay; assay type: binding; settings: 37° C., one-phase exponential decay
Description: as §1, §2

[4] = biological target: T4, HLA B*1501 (Homo sapiens, UniProt P01889, A329T/A93T/A95T/C349S/D201E/D98Y/E187L/E204Q/E69M/E70A/K202T/N87E/Q94N/R155S/R180W/S121R/S35A/S48A/V306I/V36M/Y140S/Y91S); assay: Multi-parametric analysis iScore; assay type: binding; design: scale not given here; settings: index integrating t1/2 and ED50
T4 construct: purchased
Description: (§3) Multi-parametric analysis was performed to integrate the half-life (t½) and ED50 parameters in an index (iScore). The iScore (Table 13) reflects the capability of a peptide to reconstitute with MHC molecules in a stable complex, defining its overall level of binding.

[5] = biological target: T1, HLA A*0301; assay: Multi-parametric analysis iScore; assay type: binding; design: scale not given here; settings: index integrating t1/2 and ED50
Description: as §3

[6] = biological target: T5, HLA B*0801 (Homo sapiens, UniProt P01889, A93T/A95T/D138N/E176V/E187T/K202T/Q94N/R180D/S35A/V36M/Y33D/Y91F); assay: Multi-parametric analysis iScore; assay type: binding; design: scale not given here; settings: index integrating t1/2 and ED50
T5 construct: purchased
Description: as §3

[7] = biological target: T6, HLA B*0702 (Homo sapiens, UniProt P01889); assay: Multi-parametric analysis iScore; assay type: binding; design: scale not given here; settings: index integrating t1/2 and ED50
T6 construct: purchased
Description: as §3

[8] = biological target: T7, HLA A*0101 (Homo sapiens, UniProt P04439, A114D/A174V/A182V/D101N/D185E/E176A/E190D/L180R/Q94H/R68K/S129P/T187R/V100A/V91M/W191G); assay: Multi-parametric analysis iScore; assay type: binding; design: scale not given here; settings: index integrating t1/2 and ED50
T7 construct: purchased
Description: as §3

[9] = biological target: T8, HLA A*2402 (Homo sapiens, UniProt P04439, D101N/D140Y/D185E/E176V/E190D/F33S/G103R/G107R/I119L/I121M/I306V/K335N/L105A/L180Q/L300P/N151K/N90K/Q86E/Q94H/R106L/R138H/R89G/T104I/T345S/V100E/W191G/Y123F); assay: Multi-parametric analysis iScore; assay type: binding; design: scale not given here; settings: index integrating t1/2 and ED50
Description: as §3

[10] = biological target: T2, HLA A*1101; assay: Multi-parametric analysis iScore; assay type: binding; design: scale not given here; settings: index integrating t1/2 and ED50
Description: as §3

[11] = biological target: T3, HLA A*0201; assay: Multi-parametric analysis iScore; assay type: binding; design: scale not given here; settings: index integrating t1/2 and ED50
Description: as §3

[12] = biological target: T4, HLA B*1501; assay: ITOPIA peptide binding assay; settings: 1.11×10^−4M of peptide
Description: as §1
(§4) The binding of the test peptides (Table 8) to the HLA molecules (Table 9) was performed at a concentration of 1.11×10^−4M of peptide under optimal, standardized test conditions. A control peptide was run in parallel on the same plate and at the same concentration as the test peptides. […] The level of binding is expressed as a percent of positive control peptide binding for each allele.

[13] = biological target: T1, HLA A*0301; assay: ITOPIA peptide binding assay; settings: 1.11×10^−4M of peptide
Description: as §1, §4

[14] = biological target: T5, HLA B*0801; assay: ITOPIA peptide binding assay; settings: 1.11×10^−4M of peptide
Description: as §1, §4

[15] = biological target: T6, HLA B*0702; assay: ITOPIA peptide binding assay; settings: 1.11×10^−4M of peptide
Description: as §1, §4

[16] = biological target: T7, HLA A*0101; assay: ITOPIA peptide binding assay; settings: 1.11×10^−4M of peptide
Description: as §1, §4

[17] = biological target: T8, HLA A*2402; assay: ITOPIA peptide binding assay; settings: 1.11×10^−4M of peptide
Description: as §1, §4

[18] = biological target: T2, HLA A*1101; assay: ITOPIA peptide binding assay; settings: 1.11×10^−4M of peptide
Description: as §1, §4

[19] = biological target: T3, HLA A*0201; assay: ITOPIA peptide binding assay; settings: 1.11×10^−4M of peptide
Description: as §1, §4

[20] = biological target: T5, HLA B*0801; assay: ITOPIA off-rate assay; assay type: binding; settings: 37° C., one-phase exponential decay
Description: as §1, §2

[21] = biological target: T6, HLA B*0702; assay: ITOPIA off-rate assay; assay type: binding; settings: 37° C., one-phase exponential decay
Description: as §1, §2

[22] = biological target: T8, HLA A*2402; assay: ITOPIA off-rate assay; assay type: binding; settings: 37° C., one-phase exponential decay
Description: as §1, §2

[23] = biological target: T4, HLA B*1501; assay: ITOPIA off-rate assay; assay type: binding; settings: 37° C., one-phase exponential decay
Description: as §1, §2

[24] = tested on: target cells; settings: in vitro; compared with consensus epitope; cited from earlier work

Sequence | A*1101 t1/2 [2] [h] | A*0201 t1/2 [3] [h] | iScore [4] | iScore [5] | iScore [6] | iScore [7] | iScore [8] | iScore [9] | iScore [10] | iScore [11] | level of binding, percent of positive control peptide binding [12] | level of binding, percent of positive control peptide binding [13] | level of binding, percent of positive control peptide binding [14] | level of binding, percent of positive control peptide binding [15] | level of binding, percent of positive control peptide binding [16] | level of binding, percent of positive control peptide binding [17] | level of binding, percent of positive control peptide binding [18] | level of binding, percent of positive control peptide binding [19] | B*0801 t1/2 [20] [h] | B*0702 t1/2 [21] [h] | also measured
KLAGRWPVK [compound 71] | 2.6 | 1.3 | 0 | 0.606 | 0 | 0 | 0 | 0 | 0.834 | 0.084 | 2% of positive control | 114% of positive control | 4% of positive control | 0% of positive control | 0% of positive control | 11% of positive control | 160% of positive control | 26% of positive control | – | – | A*0301 t1/2 [1]: 4.6 h
KLAGRWPVT [compound 157] | 1.6 | 1.1 | 0 | 0 | 0 | 0 | 0 | 0 | 0.039 | 0.129 | 6% of positive control | 9% of positive control | 4% of positive control | 3% of positive control | 2% of positive control | 8% of positive control | 19% of positive control | 51% of positive control | – | – | –
RGRQKVVSI [compound 153] | – | – | 0 | 0 | 0.165 | 0.271 | 0 | 0.050 | 0 | 0 | 7% of positive control | 0% of positive control | 71% of positive control | 88% of positive control | 0% of positive control | 29% of positive control | 6% of positive control | 6% of positive control | 1.2 | 1.3 | A*2402 t1/2 [22]: 1.8 h
RGRQKVVSL [compound 68] | – | – | 0.106 | 0 | 0.100 | 0.307 | 0 | 0 | 0 | 0 | 55% of positive control | 0% of positive control | 73% of positive control | 96% of positive control | 0% of positive control | 17% of positive control | 0% of positive control | 5% of positive control | 1.2 | 1.1 | B*1501 t1/2 [23]: 3.5 h
TAFTIPST | – | – | – | – | – | – | – | – | – | – | – | – | – | – | – | – | – | – | – | – | increase in the peptide concentration required to sensitize target cells for 50% lysis (SD50) by CTLs [24]: hundred-fold increase
